{
  "source": "patent US20240016943A1",
  "about": "“SYNTHETIC DNA BINDING DOMAINS AND USES THEREOF” (The University of Chicago, priority 2020, published 2024)",
  "key": {"[1]": {"system": "duplex DNA probes E1, E2, and E3", "assay": "DNA probe specificity EMSA", "type": "binding", "conditions": "STR69 1 μM, STR640 125 nM; for DNA motif specificity: B-Z 100 nM, probes E1, E2, E3", "description": "(§1) For direct DNA binding experiments, STRs were serial diluted (3-fold increments) at 2× concentration in 20 μL of 1× binding buffer (20 mM HEPES pH 8.0, 150 mM NaCl, 5% glycerol, 1 mM EDTA, 2 mM MgCl2, 0.5 mg/mL BSA, 1 mM DTT, 0.05% NP-40). 20 μL of 10 nM IRD700-labeled E-box probe in 1× binding buffer was added and samples were incubated for 30 min at RT followed by 15 min at 4° C. 3.5 μL of each reaction was loaded on a 6% acrylamide, 0.5× TBE gel equilibrated to 4° C. Higher affinity compounds (e.g., STR116 and STR118) were run at 10-fold lower concentration of compound and 0.5 nM final concentration of IRD-labeled oligo. Electrophoresis was carried out for 60 min at 110 V and 4° C. with 0.5× TBE+1 mM MgCl2 running buffer. Gels were pre-run at 110 V for 60 min prior to sample loading. For specificity experiments, 25 nM STR116, 10 nM STR118, or 5 nM MAX, and 5 nM labeled E-box probe were incubated with 0, 5, 25, 125, or 625 nM unlabeled competitor oligo for 30 min at RT in binding buffer. For protein competition experiments, 1 nM TRD-Ebox oligo was added to a mixture of STR (0-1 mM) and 30 nM protein (MAX or MYC:MAX) and incubated for 30 minutes at room temperature in binding buffer. For DNA probe specificity experiments B-Z (100 nM), STR69 (1 μM), and STR640 (125 nM) and MAX (10 nM) were incubated with 1 nM IRD-labeled oligo and 0.01 mg/ml salmon sperm DNA for 30 minutes at RT in binding buffer. All samples were equilibrated to 4° C. for 15 minutes before loading onto 6% gel. Gels were imaged using an Odyssey Li-COR. ImageJ was used to quantify band intensity and fraction bound DNA was calculated by dividing band intensity of bound DNA by the band intensity of the free DNA from a vehicle treated lane. A four-parameter dose-response curve fit to a plot of normalized fraction bound DNA vs. log B-Z concentration yields an IC50 which was reported as the apparent KD."}, "[2]": {"assay": "Solubility in RPMI media+10% FBS", "type": "physicochemical", "conditions": "RPMI media with 10% FBS, read-out: soluble concentration"}, "E-box probe": {"system": "E-box probe", "assay": "Conditioned media binding assay (retained E-box binding by EMSA)", "type": "in vitro ADME", "conditions": "HeLa conditioned media, 37° C.", "description": "HeLa cells were grown to 90% confluency in a 6 cm plate and the media was collected. 10 μM STR was resuspended in 0.5 mL of the conditioned media and incubated with gentle shaking at 37° C. At 0, 24 and 48 hrs., treatment media (2 μL) was diluted into 48 μL of 1× EMSA binding buffer containing 5 nM E-box probe. DNA binding was measured using an electrophoretic mobility shift assay. Fraction bound to E-box probe was calculated by dividing the band intensity of bound DNA by the sum of the bound DNA+free DNA."}, "[3]": {"assay": "Circular dichroism spectroscopy", "type": "physicochemical", "conditions": "25-85° C.", "description": "Lyophilized STR samples were resuspended in 20 mM phosphate buffer pH 7.4 and diluted to 10 μM. Circular dichroism spectra were obtained on a Jasco J-170 using a 0.1 cm quartz cuvette with the following settings: wavelength, 260-180 nm; data pitch, 1.0 nm; scan rate, 50 nm min^−1; accumulations, 3; temperature, 25-85° C. with 6° C. increments. Means-Movement smoothing at the lowest setting was applied to the recorded data."}, "[4]": {"system": "E-box oligonucleotide probe", "assay": "DNA competition (specificity) EMSA with unlabeled competitor oligo", "type": "binding", "conditions": "25 nM STR116, 10 nM STR118, or 5 nM MAX; 0-625 nM competitor", "description": "as §1"}, "Trypsin": {"target": "T1, Trypsin (Sus scrofa, UniProt P00761)", "T1 construct": "purchased Thermo-Pierce", "T1 sequence (P00761 9-231)": "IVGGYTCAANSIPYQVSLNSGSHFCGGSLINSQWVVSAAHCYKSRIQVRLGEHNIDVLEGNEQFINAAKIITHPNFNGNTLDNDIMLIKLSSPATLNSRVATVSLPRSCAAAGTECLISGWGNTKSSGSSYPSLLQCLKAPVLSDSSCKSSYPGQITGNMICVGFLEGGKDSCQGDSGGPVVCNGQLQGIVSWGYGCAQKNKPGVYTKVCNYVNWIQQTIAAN", "assay": "In vitro trypsin stability assay", "type": "in vitro ADME", "description": "Each STR, 30 μM, was dissolved in 330 μL of 20 mM phosphate buffer pH 7.4 in a microcentrifuge tube and heated to 37° C. on a tabletop shaker (500 rpm). 30 μL of the reaction mixture was added to 60 uL of quenching solution (ACN+3% formic acid with 500 nM fmoc-lysine-OH internal standard) for 0 s timepoint sample. Thermo-Pierce MS-Grade Trypsin was added to a final concentration of 0.5 μg/ml and additional 30 μL aliquots were quenched at indicated timepoints. Quenched samples were cooled to 4° C. and centrifuged at 20,000×G for 3 min. […] Intact STR was calculated by normalizing the background subtracted integrated area under the curve for the EIC of (M+4H)/4, ±0.5 mass units, where M is mass and H is hydrogen ion, to the integrated area under the curve for the A280 peak of the internal standard. Fraction intact STR was calculated by dividing the intact STR by the normalized STR signal in the initial 0 s sample. GraphPad Prism was used to plot fraction intact STR vs time, and the proteolytic half-life was derived using a non-linear one-phase decay with the plateau constant set equal to zero."}, "E-box DNA": {"system": "E-box DNA", "type": "binding", "description": "as §1, with “For DNA probe specificity experiments B-Z (100 nM), STR69 (1 μM), and STR640 (125 nM) and MAX (10 nM) were incubated with 1 nM IRD-labeled oligo and 0.01 mg/ml salmon sperm DNA for 30 minutes at RT in binding buffer. All samples were equilibrated to 4° C. for 15 minutes before loading onto 6% gel. Gels were imaged using an Odyssey Li-COR.” left out, “A four-parameter dose-response curve fit to a plot of normalized fraction bound DNA vs. log B-Z concentration yields an IC50 which was reported as the apparent KD.” left out"}},
  "note": "Starred links: 1 amine or outer side, 2 acyl side, 3 side chain; linkers in the order of their positions; H or OH if unused. Positions of bridges follow the written chain, without caps; N, C: chain ends. Non-standard residues stand in square brackets, D forms with d. Chains are numbered I, II in the order given. X1 = O=C1CC([*:2])C(=O)N1CC(=O)[*:1]; S5 = C=CCCC[C@](C)(N)C(=O)O; Nle = CCCC[C@H](N)C(=O)O; Aib = CC(C)(N)C(=O)O",
  "data": [
    {"substance": "Ac-RREIANSNERRRMQSINAGFQK(GlyMal)LKTLIP-NH2 + Ac-SKAAILCQTAEYIFRLRRKIHTLE-NH2 (chain 1 XREIANSNERRRMQSINAGFQXLKTLIX; chain 2 XKAAILCQTAEYIFRLRRKIHTLX; GlyMal ligation; N-acetyl; C-terminal amides; (1)..(1) Xaa is acetyl-R; (22)..(22) Xaa is K(GlyMal) (glycylmaleimide-lysine); (28)..(28) Xaa is P-NH2; (1)..(1) Xaa is acetyl-S; (24)..(24) Xaa is E-NH2) [STR640]", "values": [
      {"measurement": "DNA motif specificity", "setting": "[1]", "value": "show specificity for the OLIG2- and TFAP4-preferred motifs (target sequences in E3 and E2, respectively)"},
      {"measurement": "binding to the E-box motif", "setting": "[1]", "value": "minimal binding"}
    ]},
    {"substance": "I: Ac-PRFQSA[S5]DKR[S5]HHNALERKRRDHIKDSFHKLRDSVP-NH2 / II: Ac-SR[Aib]QILCQATEYIQSLRR[S5]IHT[S5]E-NH2 (staple I:7-I:11, II:19-II:23; linker I:30-II:7 via X1) [B11-Z70]", "values": [
      {"measurement": "solubility", "setting": "[2]", "value": "> 75", "unit": "µM"}
    ]},
    {"substance": "I: Ac-PRFQSA[S5]DKR[S5]HHNALERKRRDHIKDSFHKLRDSVP-NH2 / II: Ac-SRAQILCKATEYIQRLR[S5]KIR[S5]LE-NH2 (staple I:7-I:11, II:18-II:22; linker I:30-II:7 via X1) [B11-Z80]", "values": [
      {"measurement": "solubility", "setting": "[2]", "value": "> 75", "unit": "µM"}
    ]},
    {"substance": "I: Ac-PRFQSA[S5]DKR[S5]HHNALERKRRDHIKDSFHKLRDSVP-NH2 / II: Ac-SRAQILCKATEYIQYLR[S5]KIH[S5]LE-NH2 (staple I:7-I:11, II:18-II:22; linker I:30-II:7 via X1) [STR118, Ac-PRFQSA(S5)DKR(S5)HHNALERKRRDHIKDSFHK(GlyMal)LRDSVP-NH2 + Ac-SRAQILCKATEYIQYLR(S5)KIH(S5)LE-NH2]", "values": [
      {"measurement": "stability in conditioned media (in words)", "setting": "E-box probe", "value": "increased stability in conditioned media"},
      {"measurement": "thermal stability by temperature-dependent CD", "setting": "[3]", "value": "highly thermally stable, with retention of helicity even at 85 °C"}
    ]},
    {"substance": "Ac-LRLKINSRERKRMHDLNIAMDK(ButMal)LREVMP-NH2 + Ac-SKIATLCLARNYILMLTNSL-NH2 (chain 1 XRLKINSRERKRMHDLNIAMDXLREVMX; chain 2 XKIATLCLARNYILMLTNSX; not fully specified; ButMal ligation; N-acetyl; C-terminal amides; (1)..(1) Xaa is acetyl-L; (22)..(22) Xaa is K(ButMal) (butyrlmaleimide-lysine); (28)..(28) Xaa is P-NH2; (1)..(1) Xaa is acetyl-S; (20)..(20) Xaa is L-NH2) [STR69]", "values": [
      {"measurement": "DNA motif specificity", "setting": "[1]", "value": "show specificity for the OLIG2- and TFAP4-preferred motifs (target sequences in E3 and E2, respectively)"},
      {"measurement": "binding to the E-box motif", "setting": "[1]", "value": "minimal binding"}
    ]},
    {"substance": "MAX: Human MAX (residues 22-102) protein expressed with N-terminal hexahistidine tag, used in homodimeric form", "values": [
      {"measurement": "competition by DNA in which the E-box had been replaced entirely", "setting": "[4]", "value": "no competition"},
      {"measurement": "competition by DNA with mutation of the two central E-box nucleotides (CG to TA)", "setting": "[4]", "value": "some competition"},
      {"measurement": "competition of E-box probe binding by excess unlabeled E-box oligonucleotide", "setting": "[4]", "value": "effectively competed"},
      {"measurement": "half-life in trypsin stability assay", "setting": "Trypsin; 0.5 μg/ml trypsin, 37° C.", "value": 20, "unit": "s"}
    ]},
    {"substance": "I: Ac-PRFQSA[S5]DKR[S5]HHNALERKRRDHIKDSFHKLRDSVP-NH2 / II: Ac-SR[Aib]QILCQATEYIQ[S5][Nle]RR[S5]LHTHE-NH2 (staple I:7-I:11, II:15-II:19; linker I:30-II:7 via X1) [STR116, Ac-PRFQSA(S5)DKR(S5)HHNALERKRRDHIKDSFHK(GlyMal)LRDSVP-NH2 + Ac-SR(Aib)QILCQATEYIQ(S5)(Nle)RR(S5)LHTHE-NH2]", "values": [
      {"measurement": "stability in conditioned media (in words)", "setting": "E-box probe", "value": "increased stability in conditioned media"}
    ]},
    {"substance": "I: Ac-KRAHHNALERKRRDHIKDSFHKLRDSVP-NH2 / II: Ac-SRAQILCKATEYIQY[Nle]RRKN-NH2 (linker I:22-II:7 via X1) [B-Z]", "values": [
      {"measurement": "trypsin proteolysis (in words)", "setting": "Trypsin; LC-MS", "value": "rapidly proteolyzed at several positions"},
      {"measurement": "EMSA Fraction bound (sDBD = 500 nM)", "setting": "E-box DNA", "value": 100, "unit": "%"}
    ]}
  ]
}
